Measurements reported in PubChem BioAssay AID1963847 (Molecular Pharmacology Branch, DTP, NCI, 2024).
pIC50: −log10 of the molar value.

Tested on: 415267-285-R-J2-PDC complex spheroid viability
Test: Anticancer human tumor 415267-285-R-J2-PDC patient-derived breast carcinoma cell line growth inhibition [POLQ]
Conditions: for pIC50: curve of first compound; for viability, T/C: stronger effect = lower value
How it was run: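 Complex spheroid viability model combining PDC tumour cells with endothelial (HUVEC) and MSC stromal cells. Novobiocin, ART-558 or RP6685 were tested singly and in combination with standard and investigational anticancer drugs. Each was titrated in half-log steps from near clinical Cmax, or from 10 microM where Cmax was unknown.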
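Note: spheroids exposed to compounds for one week before readout.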
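Throughout, for viability, T/C: luminescence used as stand-in measure of viable cells; 100% = DMSO vehicle control viability.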

SMILES: CCc1cc2c(N3CCc4c(cc(Cn5ccnc5)cc4-c4cn(C)nc4C(F)(F)F)C3=O)cc(C)nc2c(OC)n1 + COC1C(OC(N)=O)C(O)C(Oc2ccc3c(O)c(NC(=O)c4ccc(O)c(CC=C(C)C)c4)c(=O)oc3c2C)OC1(C)C
- pIC50 (second compound 0.0316 µM): < 5.00
- pIC50 (second compound 0.1 µM): < 5.00
- pIC50 (second compound 0.316 µM): < 5.00
- pIC50 (second compound 1 µM): < 5.00
- pIC50 (second compound 3.16 µM): < 5.00
- pIC50 (second compound 10 µM): < 5.00
- viability, T/C (second compound 0.0316 µM, first compound 0.0316 µM): 75.5%
- viability, T/C (second compound 0.0316 µM, first compound 0.1 µM): 81.8%
- viability, T/C (second compound 0.0316 µM, first compound 0.316 µM): 84.8%
- viability, T/C (second compound 0.0316 µM, first compound 1 µM): 76.1%
- viability, T/C (second compound 0.0316 µM, first compound 3.16 µM): 76%
- viability, T/C (second compound 0.0316 µM, first compound 10 µM): 64.4%
- viability, T/C (second compound 0.1 µM, first compound 0.0316 µM): 84%
- viability, T/C (second compound 0.1 µM, first compound 0.1 µM): 81.9%
- viability, T/C (second compound 0.1 µM, first compound 0.316 µM): 80.6%
- viability, T/C (second compound 0.1 µM, first compound 1 µM): 75.6%
- viability, T/C (second compound 0.1 µM, first compound 3.16 µM): 72.9%
- viability, T/C (second compound 0.1 µM, first compound 10 µM): 66.8%
- viability, T/C (second compound 0.316 µM, first compound 0.0316 µM): 93.5%
- viability, T/C (second compound 0.316 µM, first compound 0.1 µM): 79.9%
- viability, T/C (second compound 0.316 µM, first compound 0.316 µM): 74.2%
- viability, T/C (second compound 0.316 µM, first compound 1 µM): 69.5%
- viability, T/C (second compound 0.316 µM, first compound 3.16 µM): 83.7%
- viability, T/C (second compound 0.316 µM, first compound 10 µM): 65.9%
- viability, T/C (second compound 1 µM, first compound 0.0316 µM): 94.1%
- viability, T/C (second compound 1 µM, first compound 0.1 µM): 79.6%
- viability, T/C (second compound 1 µM, first compound 0.316 µM): 68.1%
- viability, T/C (second compound 1 µM, first compound 1 µM): 73.9%
- viability, T/C (second compound 1 µM, first compound 3.16 µM): 73.6%
- viability, T/C (second compound 1 µM, first compound 10 µM): 55.5%
- viability, T/C (second compound 3.16 µM, first compound 0.0316 µM): 92.3%
- viability, T/C (second compound 3.16 µM, first compound 0.1 µM): 98.6%
- viability, T/C (second compound 3.16 µM, first compound 0.316 µM): 73.8%
- viability, T/C (second compound 3.16 µM, first compound 1 µM): 85.3%
- viability, T/C (second compound 3.16 µM, first compound 3.16 µM): 80.9%
- viability, T/C (second compound 3.16 µM, first compound 10 µM): 73.5%
- viability, T/C (second compound 10 µM, first compound 0.0316 µM): 90.2%
- viability, T/C (second compound 10 µM, first compound 0.1 µM): 85.9%
- viability, T/C (second compound 10 µM, first compound 0.316 µM): 88.3%
- viability, T/C (second compound 10 µM, first compound 1 µM): 82%
- viability, T/C (second compound 10 µM, first compound 3.16 µM): 68.5%
- viability, T/C (second compound 10 µM, first compound 10 µM): 59.7%
